The values below are quoted from earlier work in PMC9299415 (Molecular Neurobiology, 2022).

The structures appear in SMILES notation.

In series [1] the test system is α7 nAChR.
Series [2] concerns SARS-CoV-2. Conditions: rhesus macaque model, ref [18].

Regarding `Oc1ccc2[nH]ccc2c1` [5-HI, 5-hydroxyindole], in series [1], the “potentiation efficacy compared with PNU-120596” value is listed as “lower efficacy than PNU-120596” and the “recovery of receptors from desensitization” value is listed as “does not produce significant recovery of receptors from desensitization”. For the compound `CCN1C[C@]2(COC(=O)c3ccccc3N3C(=O)C[C@H](C)C3=O)CC[C@H](OC)[C@@]34[C@@H]5C[C@H]6[C@H](OC)[C@@H]5[C@](O)(C[C@@H]6OC)[C@@](O)([C@@H](OC)[C@H]23)[C@@H]14` [MLA, methyllycaconitine], in series [1], the “agonist/antagonist type at α7” value is on record as “reversible competitive α7 antagonist”.

`COc1cc(OC)c(NC(=O)Nc2cc(C)on2)cc1Cl` [PNU-120596, N-(5-Chloro-2,4-dimethoxyphenyl)-N’-(5-methyl-3-isoxazolyl)-urea]: the “channel activation by PNU-120596 by itself” value in series [1] is given as “cannot induce channel activation”. Consider `c1cnc2cc3c(cc2n1)[C@@H]1CNC[C@H]3C1` [varenicline], for which the “agonist/antagonist type at α7” value in series [1] is on record as “full agonist”. Also, the “infectivity and disease progression” value in series [2] was “reduces infectivity and disease progression”.
